Structures can show the parent of a compound that is named as a salt.
Tested on: rabbit cornea
Test: Corneal anaesthesia in rabbit (blinking reflex, Camougis and Tankman method)
Format: in vivo
Conditions: rabbit eye
Description: […] of solution was instilled in the conjunctival sac. The blinking reflex, tested with a bristle, was measured before instillation and then every 5-10 minutes until one hour after treatment. At each test time the degree of anaesthesia was expressed by means of a score of up to 10 given by the number of stimulations before the eye-blink reflex was obtained. The overall anaesthetic effect for each compound was then quantified by the area under curve (AUC) of the degree of anaesthesia over time.

[1] = Table 1, dose 0.125% (as hydrochloride), reference Bupivacaine HCl = 100
[2] = Table 5, dose 0.125%, degree of salification, 500-730 kDa, reference Bupivacaine HCl = 100

CN(C)CCCOc1nn(Cc2ccccc2)c2ccccc12 [Benzydamine HCl, benzydamine hydrochloride]
Anaesthesia (AUC) (Table 1, dose 0.125% (as hydrochloride), reference Benzydamine HCl = 100): 100
Anaesthesia (AUC) (Table 6, dose 0.125%, degree of salification, 50-350 kDa, reference Benzydamine HCl = 100): 100

CCCCN1CCCCC1C(=O)Nc1c(C)cccc1C (stereo not drawn) [Bupivacaine HCl, bupivacaine hydrochloride]
Anaesthesia (AUC) [1]: 100
Anaesthesia (AUC) (Table 3, first group (50% Na salts), dose 0.125%, reference Bupivacaine HCl = 100): 100
Anaesthesia (AUC) (Table 3, second group (50% Ca salts), dose 0.125%, reference Bupivacaine HCl = 100): 100
Anaesthesia (AUC) [2]: 100

stoichiometrically neutral salt of hyaluronic acid with bupivacaine [FID 60.2082]
Anaesthesia (AUC) [1]: 166
Anaesthesia (AUC) (Table 2, dose 0.125%, FID 60.20XX (50-350 kDa), reference FID 60.2082 = 100): 100

stoichiometrically neutral salt of hyaluronic acid with bupivacaine [FID 61.2082]
Anaesthesia (AUC) (Table 2, dose 0.125%, FID 61.20XX (500-730 kDa), reference FID 61.2082 = 100): 100
Anaesthesia (AUC) [2]: 314

stoichiometrically neutral salt of hyaluronic acid with bupivacaine [FID 62.2082]
Anaesthesia (AUC) (Table 2, dose 0.125%, FID 62.20XX (750-1200 kDa), reference FID 62.2082 = 100): 100

stoichiometrically neutral salt of hyaluronic acid with lidocaine [FID 60.2070]
Anaesthesia (AUC) (Table 1, dose 1% (as hydrochloride), reference Lidocaine HCl = 100): 167
